Results from publication PMC4929832 (Nature, 2016).

Legend:
PAK4 = PAK4 (Homo sapiens, UniProt O96013); test: kinase panel; type: biochemical
FRAP1 = FRAP1 (Homo sapiens, UniProt P42345); test: kinase panel; type: biochemical
PAK6 = PAK6 (Homo sapiens, UniProt Q9NQU5); test: kinase panel; type: biochemical
CK2 = test: kinase panel; type: biochemical; conditions: CK2, 1 μM
RSK1 = RSK1 (Homo sapiens, UniProt Q15418); test: kinase panel; type: biochemical
ALK5 = ALK5 (Homo sapiens, UniProt P36897); test: kinase panel; type: biochemical
PDGFR-BETA = PDGFR-BETA (Homo sapiens, UniProt P09619); test: kinase panel; type: biochemical
GRK7 = GRK7 (Homo sapiens, UniProt Q8WTQ7); test: kinase panel; type: biochemical
ARK5 = ARK5 (Homo sapiens, UniProt O60285); test: kinase panel; type: biochemical
CSK = CSK (Homo sapiens, UniProt P41240); test: kinase panel; type: biochemical
HCK = HCK (Homo sapiens, UniProt P08631); test: kinase panel; type: biochemical
DCAMKL2 = DCAMKL2 (Homo sapiens, UniProt Q8N568); test: kinase panel; type: biochemical
MNK2 = MNK2 (Homo sapiens, UniProt Q9HBH9); test: kinase panel; type: biochemical
PIM1 = PIM1 (Homo sapiens, UniProt P11309); test: kinase panel; type: biochemical
IGF1R = IGF1R (Homo sapiens, UniProt P08069); test: kinase panel; type: biochemical
BMX = BMX (Homo sapiens, UniProt P51813); test: kinase panel; type: biochemical
MRCK-BETA = MRCK-BETA (Homo sapiens, UniProt Q9Y5S2); test: kinase panel; type: biochemical
BRK = BRK (Homo sapiens, UniProt Q13882); test: kinase panel; type: biochemical
PKACB = PKACB (Homo sapiens, UniProt P22694); test: kinase panel; type: biochemical
EPH-A1 = EPH-A1 (Homo sapiens, UniProt P21709); test: kinase panel; type: biochemical
EPH-A2 = EPH-A2 (Homo sapiens, UniProt P29317); test: kinase panel; type: biochemical
PKC-ETA = PKC-ETA (Homo sapiens, UniProt P24723); test: kinase panel; type: biochemical
ITK = ITK (Homo sapiens, UniProt Q08881); test: kinase panel; type: biochemical
NDR1 = NDR1 (Homo sapiens, UniProt Q15208); test: kinase panel; type: biochemical
PKN1 = PKN1 (Homo sapiens, UniProt Q16512); test: kinase panel; type: biochemical
TEC = TEC (Homo sapiens, UniProt P42680); test: kinase panel; type: biochemical
CAMK4 = CAMK4 (Homo sapiens, UniProt Q16566); test: kinase panel; type: biochemical
EPH-B3 = EPH-B3 (Homo sapiens, UniProt P54753); test: kinase panel; type: biochemical
CDK1 = CDK1 (Homo sapiens, UniProt P06493); test: kinase panel; type: biochemical
JNK3 = JNK3 (Homo sapiens, UniProt P53779); test: kinase panel; type: biochemical
PLK3 = PLK3 (Homo sapiens, UniProt Q9H4B4); test: kinase panel; type: biochemical
TNK1 = TNK1 (Homo sapiens, UniProt Q13470); test: kinase panel; type: biochemical
FES = FES (Homo sapiens, UniProt P07332); test: kinase panel; type: biochemical
P38-DELTA = P38-DELTA (Homo sapiens, UniProt O15264); test: kinase panel; type: biochemical
FGFR3 = FGFR3 (Homo sapiens, UniProt P22607); test: kinase panel; type: biochemical
P70S6K1 = P70S6K1 (Homo sapiens, UniProt P23443); test: kinase panel; type: biochemical
PRKX = PRKX (Homo sapiens, UniProt P51817); test: kinase panel; type: biochemical
PTK5 = PTK5 (Homo sapiens, UniProt P42685); test: kinase panel; type: biochemical
TYK2 = TYK2 (Homo sapiens, UniProt P29597); test: kinase panel; type: biochemical
[1] = biological target: Adrenergic Alpha 2C receptor (Homo sapiens, UniProt P18825); test: Adrenergic Alpha 2C receptor assay; type: binding
Dopamine Transporter = Dopamine Transporter (Homo sapiens, UniProt Q01959); test: Dopamine Transporter assay; type: binding
Serotonin 5HT2A = Serotonin 5HT2A (Homo sapiens, UniProt P28223); test: Serotonin 5HT2A calcium flux assay; type: cell-based
Serotonin 5HT2A, sequence (P28223 whole entry): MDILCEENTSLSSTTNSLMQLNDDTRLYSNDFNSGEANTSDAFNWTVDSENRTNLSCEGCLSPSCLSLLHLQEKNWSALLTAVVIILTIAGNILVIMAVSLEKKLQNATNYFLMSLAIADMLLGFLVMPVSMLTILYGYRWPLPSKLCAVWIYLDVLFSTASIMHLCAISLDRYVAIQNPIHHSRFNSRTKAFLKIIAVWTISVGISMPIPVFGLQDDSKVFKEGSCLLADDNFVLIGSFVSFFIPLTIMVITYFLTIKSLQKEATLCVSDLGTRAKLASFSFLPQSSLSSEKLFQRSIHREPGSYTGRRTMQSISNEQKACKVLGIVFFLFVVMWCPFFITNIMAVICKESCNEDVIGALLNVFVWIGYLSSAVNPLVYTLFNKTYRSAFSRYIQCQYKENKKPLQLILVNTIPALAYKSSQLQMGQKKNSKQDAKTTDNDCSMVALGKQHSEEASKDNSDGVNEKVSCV

PDGFR-BETA, sequence (P09619 33-1106): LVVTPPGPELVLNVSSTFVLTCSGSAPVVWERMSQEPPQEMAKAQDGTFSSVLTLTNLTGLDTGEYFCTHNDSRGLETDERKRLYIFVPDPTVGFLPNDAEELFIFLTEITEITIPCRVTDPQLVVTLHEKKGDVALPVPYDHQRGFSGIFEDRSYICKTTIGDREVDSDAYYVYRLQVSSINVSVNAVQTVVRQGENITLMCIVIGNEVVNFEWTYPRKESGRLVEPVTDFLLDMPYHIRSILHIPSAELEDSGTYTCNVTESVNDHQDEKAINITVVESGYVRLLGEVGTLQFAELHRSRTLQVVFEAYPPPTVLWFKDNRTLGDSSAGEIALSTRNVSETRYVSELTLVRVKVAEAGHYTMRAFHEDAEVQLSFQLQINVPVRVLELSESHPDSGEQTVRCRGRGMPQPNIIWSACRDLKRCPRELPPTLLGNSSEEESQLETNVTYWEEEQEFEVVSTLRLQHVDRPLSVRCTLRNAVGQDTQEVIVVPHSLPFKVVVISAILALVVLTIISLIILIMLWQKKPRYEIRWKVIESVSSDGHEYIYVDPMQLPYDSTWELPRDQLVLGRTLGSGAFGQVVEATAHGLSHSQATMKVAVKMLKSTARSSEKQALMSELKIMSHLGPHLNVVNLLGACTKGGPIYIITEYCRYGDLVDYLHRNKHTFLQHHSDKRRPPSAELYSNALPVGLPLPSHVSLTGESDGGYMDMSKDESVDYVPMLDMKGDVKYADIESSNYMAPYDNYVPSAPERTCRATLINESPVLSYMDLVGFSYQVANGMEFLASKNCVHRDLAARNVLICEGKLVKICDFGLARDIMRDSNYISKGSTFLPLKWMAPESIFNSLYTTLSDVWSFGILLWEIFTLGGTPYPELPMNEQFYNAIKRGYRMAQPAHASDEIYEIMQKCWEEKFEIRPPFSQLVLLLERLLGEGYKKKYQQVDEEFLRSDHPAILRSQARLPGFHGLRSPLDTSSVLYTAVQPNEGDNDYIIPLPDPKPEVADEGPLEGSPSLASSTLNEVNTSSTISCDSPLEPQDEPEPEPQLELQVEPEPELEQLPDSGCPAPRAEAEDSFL
P70S6K1, sequence (P23443 whole entry): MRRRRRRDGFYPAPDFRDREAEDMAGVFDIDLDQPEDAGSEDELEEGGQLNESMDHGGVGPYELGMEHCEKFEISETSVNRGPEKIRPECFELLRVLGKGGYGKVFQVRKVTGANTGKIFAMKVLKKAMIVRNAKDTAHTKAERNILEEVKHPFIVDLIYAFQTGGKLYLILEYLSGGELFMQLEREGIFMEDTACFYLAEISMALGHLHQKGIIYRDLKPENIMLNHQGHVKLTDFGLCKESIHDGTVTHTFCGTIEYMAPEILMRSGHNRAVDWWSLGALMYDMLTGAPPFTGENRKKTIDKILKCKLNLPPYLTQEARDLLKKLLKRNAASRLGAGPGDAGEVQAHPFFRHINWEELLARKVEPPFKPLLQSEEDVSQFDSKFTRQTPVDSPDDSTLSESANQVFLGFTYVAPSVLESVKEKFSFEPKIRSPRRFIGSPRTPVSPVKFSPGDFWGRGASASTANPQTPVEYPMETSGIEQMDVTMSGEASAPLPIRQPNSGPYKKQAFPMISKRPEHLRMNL
MRCK-BETA, sequence (Q9Y5S2 whole entry): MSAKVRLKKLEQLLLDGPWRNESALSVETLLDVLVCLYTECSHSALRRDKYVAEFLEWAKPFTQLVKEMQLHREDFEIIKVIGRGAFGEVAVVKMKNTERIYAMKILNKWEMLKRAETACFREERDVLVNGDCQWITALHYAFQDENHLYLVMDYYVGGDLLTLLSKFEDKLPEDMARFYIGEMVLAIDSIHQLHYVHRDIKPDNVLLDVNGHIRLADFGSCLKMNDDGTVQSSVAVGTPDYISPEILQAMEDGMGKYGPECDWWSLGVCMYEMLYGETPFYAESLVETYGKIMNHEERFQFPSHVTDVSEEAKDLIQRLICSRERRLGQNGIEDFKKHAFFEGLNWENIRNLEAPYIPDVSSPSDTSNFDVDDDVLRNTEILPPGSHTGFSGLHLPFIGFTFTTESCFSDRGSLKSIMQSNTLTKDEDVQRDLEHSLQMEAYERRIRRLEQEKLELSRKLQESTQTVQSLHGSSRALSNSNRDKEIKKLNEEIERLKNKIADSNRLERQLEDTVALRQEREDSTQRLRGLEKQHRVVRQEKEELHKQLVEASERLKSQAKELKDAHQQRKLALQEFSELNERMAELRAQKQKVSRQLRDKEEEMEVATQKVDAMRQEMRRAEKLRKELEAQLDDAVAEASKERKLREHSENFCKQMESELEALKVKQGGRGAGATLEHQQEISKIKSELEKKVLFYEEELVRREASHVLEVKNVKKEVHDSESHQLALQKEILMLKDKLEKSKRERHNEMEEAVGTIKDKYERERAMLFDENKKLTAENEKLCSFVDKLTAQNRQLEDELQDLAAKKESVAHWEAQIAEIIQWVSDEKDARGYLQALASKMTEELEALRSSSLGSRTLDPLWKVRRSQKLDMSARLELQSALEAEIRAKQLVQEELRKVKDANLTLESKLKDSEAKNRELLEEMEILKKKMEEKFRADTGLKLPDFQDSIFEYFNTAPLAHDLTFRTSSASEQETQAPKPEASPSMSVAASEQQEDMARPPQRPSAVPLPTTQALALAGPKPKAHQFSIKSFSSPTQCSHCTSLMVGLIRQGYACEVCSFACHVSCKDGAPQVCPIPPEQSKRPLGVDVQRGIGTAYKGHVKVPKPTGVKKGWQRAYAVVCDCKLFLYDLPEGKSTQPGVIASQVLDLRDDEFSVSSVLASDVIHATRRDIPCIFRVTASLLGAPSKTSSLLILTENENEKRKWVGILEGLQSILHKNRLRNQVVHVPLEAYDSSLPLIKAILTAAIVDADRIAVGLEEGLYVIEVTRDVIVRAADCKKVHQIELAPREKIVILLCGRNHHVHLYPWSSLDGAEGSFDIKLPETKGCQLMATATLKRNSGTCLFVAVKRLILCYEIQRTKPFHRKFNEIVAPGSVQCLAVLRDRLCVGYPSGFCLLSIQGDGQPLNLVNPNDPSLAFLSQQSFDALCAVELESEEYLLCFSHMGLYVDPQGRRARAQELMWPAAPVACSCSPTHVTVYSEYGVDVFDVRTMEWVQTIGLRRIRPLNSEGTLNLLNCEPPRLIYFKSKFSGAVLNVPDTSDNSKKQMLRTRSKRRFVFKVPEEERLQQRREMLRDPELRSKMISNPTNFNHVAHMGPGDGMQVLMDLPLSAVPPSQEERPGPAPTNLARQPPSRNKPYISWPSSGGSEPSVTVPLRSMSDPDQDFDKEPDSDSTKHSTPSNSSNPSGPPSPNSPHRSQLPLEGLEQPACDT
CAMK4, sequence (Q16566 whole entry): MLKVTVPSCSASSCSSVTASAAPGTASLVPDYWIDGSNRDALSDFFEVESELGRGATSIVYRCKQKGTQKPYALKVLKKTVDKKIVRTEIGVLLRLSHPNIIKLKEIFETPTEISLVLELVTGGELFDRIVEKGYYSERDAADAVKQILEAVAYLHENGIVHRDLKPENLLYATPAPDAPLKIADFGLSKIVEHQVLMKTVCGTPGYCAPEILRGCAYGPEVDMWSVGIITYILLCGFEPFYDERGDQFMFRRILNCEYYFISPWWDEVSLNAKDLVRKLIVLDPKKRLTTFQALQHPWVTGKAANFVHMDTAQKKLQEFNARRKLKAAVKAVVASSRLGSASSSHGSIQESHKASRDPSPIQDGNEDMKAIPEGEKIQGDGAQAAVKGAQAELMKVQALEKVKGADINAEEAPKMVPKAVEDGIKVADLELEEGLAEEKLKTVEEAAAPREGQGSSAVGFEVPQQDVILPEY
TEC, sequence (P42680 whole entry): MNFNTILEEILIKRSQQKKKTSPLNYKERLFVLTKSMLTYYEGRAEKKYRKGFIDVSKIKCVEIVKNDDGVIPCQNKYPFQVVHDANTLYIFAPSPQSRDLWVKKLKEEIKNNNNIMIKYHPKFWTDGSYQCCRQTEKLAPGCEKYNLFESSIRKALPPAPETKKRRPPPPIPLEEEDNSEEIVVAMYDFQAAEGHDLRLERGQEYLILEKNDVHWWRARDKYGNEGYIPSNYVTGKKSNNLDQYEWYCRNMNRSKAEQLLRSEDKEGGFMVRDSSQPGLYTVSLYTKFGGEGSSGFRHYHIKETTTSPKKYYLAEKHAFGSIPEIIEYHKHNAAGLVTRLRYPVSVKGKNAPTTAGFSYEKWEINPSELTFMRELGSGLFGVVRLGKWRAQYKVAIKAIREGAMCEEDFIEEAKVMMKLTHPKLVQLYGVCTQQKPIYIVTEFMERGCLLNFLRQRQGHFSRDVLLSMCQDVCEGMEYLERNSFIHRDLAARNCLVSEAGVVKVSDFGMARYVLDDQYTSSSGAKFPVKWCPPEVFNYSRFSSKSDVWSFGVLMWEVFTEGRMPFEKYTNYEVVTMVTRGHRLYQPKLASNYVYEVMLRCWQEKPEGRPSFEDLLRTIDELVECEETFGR

O=C(Nc1nccs1)C(c1cc(F)ccc1O)N1Cc2ccccc2C1=O (stereo not drawn) [EAI045, 2-(5-fluoro-2-hydroxyphenyl)-2-(1-oxo-2,3-dihydro-1H-isoindol-2-yl)-N-(1,3-thiazol-2-yl)acetamide]
3%: inhibition at 1 µM (MNK2) | inhibition at 1 µM (PRKX)
> 30 µM: IC50 [1] | IC50 (Dopamine Transporter) | IC50 (Serotonin 5HT2A)
1%: inhibition at 1 µM (BMX) | inhibition at 1 µM (CAMK4) | inhibition at 1 µM (FGFR3)
4%: inhibition at 1 µM (PDGFR-BETA) | inhibition at 1 µM (IGF1R) | inhibition at 1 µM (TEC)
0%: inhibition at 1 µM (PAK4) | inhibition at 1 µM (FRAP1) | inhibition at 1 µM (PAK6) | % inhibition (CK2) | inhibition at 1 µM (RSK1) | inhibition at 1 µM (ALK5) | inhibition at 1 µM (GRK7) | inhibition at 1 µM (ARK5) | inhibition at 1 µM (CSK) | inhibition at 1 µM (HCK) | inhibition at 1 µM (DCAMKL2) | inhibition at 1 µM (PIM1) | inhibition at 1 µM (MRCK-BETA) | inhibition at 1 µM (BRK) | inhibition at 1 µM (PKACB) | inhibition at 1 µM (EPH-A1) | inhibition at 1 µM (PKC-ETA) | inhibition at 1 µM (ITK) | inhibition at 1 µM (PKN1) | inhibition at 1 µM (EPH-B3) | inhibition at 1 µM (JNK3) | inhibition at 1 µM (TNK1) | inhibition at 1 µM (P38-DELTA) | inhibition at 1 µM (P70S6K1) | inhibition at 1 µM (PTK5) | inhibition at 1 µM (TYK2)
2%: inhibition at 1 µM (NDR1) | inhibition at 1 µM (CDK1) | inhibition at 1 µM (FES)
7%: inhibition at 1 µM (EPH-A2)
5%: inhibition at 1 µM (PLK3)
